How the values were obtained:
OATP1B1 = tested on: T1, OATP1B1; assay: OATP1B1 inhibition study in MDCK cells; format: in vitro ADME; conditions: MDCK-II cell monolayer expressing OATP1B1, probe [3H]-estradiol-17β-D-glucuronide; rifampicin 100 μM, 2 μM substrate; read-out: % inhibition of OATP1B1-mediated transport of estradiol-17β-D-glucuronide, reference inhibitor
T1 construct: expressed in transfected cells; host or cells: MDCK-II
Description: (§1) A 96-well cell culture plate containing a monolayer of MDCK-II cells grown on a permeable support and a corresponding receiver tray was used. The basolateral compartment of the culture plate and wells were washed with warm HBSS three times, with wells of the culture plate serving as the apical compartment. The wash was aspirated by adding 150 μL of 37°C HBSS to both compartments. Plates were incubated at 37°C with orbital shaking at 60 rpm for 15 min for OAT1, OAT3, OCT1, OCT2, OATP1B1, and OATP1B3 (±5 min). The pre-incubation buffer from both compartments was aspirated and 150 μL of the following was added to the basal compartment. […] Test article concentrations, including control samples, were evaluated by an LC-MS method.
(§2) Signal to noise for probe substrates was calculated by dividing the uptake of the probe substrate in transporter-expressing cells by the uptake of probe substrate in control cells not expressing the transporter of interest. Percent inhibition was calculated by dividing the net-transporter-mediated substrate uptake in the presence of the test article or the reference inhibitor by the net-transporter-mediated substrate uptake in the absence of the inhibitor according to the equation: %inhibition=100−(100×(transporter-mediateduptake)withinhibitor/(transporter-mediateduptake)withoutinhibitor).

OATP1B3 = tested on: T2, OATP1B3; assay: OATP1B3 inhibition study in MDCK cells; format: in vitro ADME; conditions: MDCK-II cell monolayer expressing OATP1B3, probe [3H]-cholecystokinin octapeptide (CCK-8); rifampicin 100 μM, 2 μM CCK-8; read-out: % inhibition of OATP1B3-mediated transport of CCK-8, reference inhibitor
T2 construct: expressed in transfected cells; host or cells: MDCK-II
Description: A 96-well cell culture plate containing a monolayer of MDCK-II cells grown on a permeable support and a corresponding receiver tray was used. The basolateral compartment of the culture plate and wells were washed with warm HBSS three times, with wells of the culture plate serving as the apical compartment. The wash was aspirated by adding 150 μL of 37°C HBSS to both compartments. Plates were incubated at 37°C with orbital shaking at 60 rpm for 15 min for OAT1, OAT3, OCT1, OCT2, OATP1B1, and OATP1B3 (±5 min). The pre-incubation buffer from both compartments was aspirated and 150 μL of the following was added to the basal compartment. […] Samples containing probe substrate were added to 200 μL of scintillation fluid and counted on a 1450 Microbeta (PerkinElmer), whereas samples containing the test article were kept frozen. Test article concentrations, including control samples, were evaluated by an LC-MS method.
Signal to noise for probe substrates was calculated by dividing the uptake of the probe substrate in transporter-expressing cells by the uptake of probe substrate in control cells not expressing the transporter of interest. […]

OCT1 = tested on: T3, OCT1; assay: OCT1 inhibition study in MDCK cells; format: in vitro ADME; conditions: MDCK-II cell monolayer expressing OCT1, probe [3H]-MPP+, 2 μM; read-out: % inhibition of OCT1-mediated transport of MPP+, reference inhibitor
T3 construct: expressed in transfected cells; host or cells: MDCK-II
Description: as §1, §2

OCT2 = tested on: T4, OCT2; assay: OCT2 inhibition study in MDCK cells; format: in vitro ADME; conditions: MDCK-II cell monolayer expressing OCT2, probe [14C]-metformin, 10 μM; read-out: % inhibition of OCT2-mediated transport of metformin, reference inhibitor
T4 construct: expressed in transfected cells; host or cells: MDCK-II
Description: as §1, §2

CYP2B6 mRNA = CYP2B6 mRNA induction in plated human hepatocytes; conditions: human
Description: (§3) Upon receipt, sandwich-cultured cryopreserved human hepatocytes (with Matrigel) plated on collagen-coated 24-well plates were inspected under a microscope for general morphology and viability. Fresh culture medium (OptiCulture Hepatocyte Media) was added to each plate that passed the visual inspection. The plates were then placed in an incubator set to 37°C with 5% carbon dioxide (CO2) for overnight acclimation. […] During this time, cells in parallel wells were also treated with 50.0 μM omeprazole (inducer of CYP1A2), 1,000 μM phenobarbital (inducer of CYP2B6), or 10.0 μM rifampicin (inducer of CYP3A4) in triplicate, respectively.
(§4) After collection of the supernatant for catalytic analysis, the remaining cells were washed and lysed with QIAGEN Buffer RLT from the QIAGEN RNeasy Kit. […]
(§5) The activity of each CYP enzyme was measured by comparing the peak area ratio of the corresponding product to the peak area ratio of the internal standard. The fold induction was calculated by dividing the peak area ratio of each individual well from the treatment group by the mean of the peak area ratios obtained from the vehicle control wells. […] The ΔCƬ was calculated as follows: ΔCƬ = CƬ (CYP) − CƬ (GAPDH). […] The ΔΔCƬ was calculated as follows: ΔΔCƬ = Δ CƬ (Treatment) − Δ CƬ (Vehicle). The fold induction of the target CYP was calculated using the following equation: Fold=2^-ΔΔCT.

CYP2B6 = CYP2B6 enzyme activity induction in plated human hepatocytes; conditions: human
Description: as §3
(§6) The plates were then incubated at 37°C with 5% CO2 for 60 min. […] Aliquots of the supernatants were analyzed by LC-MS/MS for the formation of acetaminophen, hydroxyl-bupropion, or hydroxyl-midazolam as markers for enzyme activity of CYP1A2, CYP2B6, and CYP3A4, respectively.
as §5, with “The fold induction of the target CYP was calculated using the following equation: Fold=2^-ΔΔCT.” left out

CYP2C8 = target: T5, CYP2C8 (Homo sapiens, UniProt P10632); conditions: hepatocytes
T5 sequence (P10632 1-490): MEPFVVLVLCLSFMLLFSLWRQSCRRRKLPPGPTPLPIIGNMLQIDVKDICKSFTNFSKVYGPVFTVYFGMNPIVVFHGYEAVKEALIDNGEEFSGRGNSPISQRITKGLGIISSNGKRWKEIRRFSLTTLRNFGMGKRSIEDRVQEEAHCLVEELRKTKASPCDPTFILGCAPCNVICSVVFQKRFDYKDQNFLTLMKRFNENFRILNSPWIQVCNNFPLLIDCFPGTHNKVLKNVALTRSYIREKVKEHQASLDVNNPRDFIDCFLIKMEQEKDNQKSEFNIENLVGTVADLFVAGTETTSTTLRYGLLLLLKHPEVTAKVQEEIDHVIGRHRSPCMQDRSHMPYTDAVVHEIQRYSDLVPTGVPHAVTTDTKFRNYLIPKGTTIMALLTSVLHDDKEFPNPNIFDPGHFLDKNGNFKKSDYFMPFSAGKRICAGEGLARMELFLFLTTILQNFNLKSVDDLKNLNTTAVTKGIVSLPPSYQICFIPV
Description: Preincubations were performed in 50 μL of Williams’ Medium E with 2 mM salicylamide. The salicylamide was included to reduce possible phase II conjugation to the precursor phase I metabolites. […] Human hepatocytes (pooled from 5 donors) were thawed and prepared according to the vendor’s protocol. […] Incubations were carried out at 37°C with 5% CO2. The incubation time was 45 min for phenacetin, diclofenac, dextromethorphan, midazolam, bupropion, chlorzoxazone, and testosterone and 90 min for paclitaxel and (S)-mephenytoin. The reactions were stopped by adding 200 μL of ice-cold acetonitrile (can) with tolbutamide (100 ng/mL) as the internal standard to 100 μL of hepatocyte suspension (1:2, v/v). The 96-well plate was then vortexed at 1,700 rpm for 3 min and centrifuged at 3,500 rpm for 10 min at 20°C. The supernatants were analyzed using liquid chromatography-tandem MS (LC-MS/MS).

CYP1A2 mRNA = assay: in vitro; conditions: human
Description: as §3, §4, §5

CYP1A2 = CYP1A2 enzyme activity induction in plated human hepatocytes; conditions: human, probe phenacetin, 100 μM
Description: as §3, §6
as §5, with “The fold induction of the target CYP was calculated using the following equation: Fold=2^-ΔΔCT.” left out

BCRP = conditions: Ko143 1 μM, 2 μM prazosin
OAT3 = tested on: T6, OAT3; assay: OAT3 inhibition study in MDCK cells; format: in vitro ADME; conditions: MDCK-II cell monolayer expressing OAT3, probe [3H]-p-aminohippurate; probenecid 100 μM, 10 μM p-aminohippurate; read-out: % inhibition of OAT3-mediated transport of p-aminohippurate, reference inhibitor
T6 construct: expressed in transfected cells; host or cells: MDCK-II
Description: A 96-well cell culture plate containing a monolayer of MDCK-II cells grown on a permeable support and a corresponding receiver tray was used. The basolateral compartment of the culture plate and wells were washed with warm HBSS three times, with wells of the culture plate serving as the apical compartment. The wash was aspirated by adding 150 μL of 37°C HBSS to both compartments. […] The pre-incubation buffer from both compartments was aspirated and 150 μL of the following was added to the basal compartment. […] OATP1B1, 2 μM [^3H]-estradiol-17 β-D-glucuronide; and OATP1B3, 2 μM [^3H]-cholecystokinin octapeptide (CCK-8). […] Plates were incubated at 37°C with orbital shaking at 60 rpm for 5 min. Both sides of the permeable support were washed four times with ice-cold PBS and 60 μL of cell extraction solution was added to each well. Plates were agitated for 15 min at 120 rpm, after which a 30-μL sample of the extract was collected. […] Test article concentrations, including control samples, were evaluated by an LC-MS method. Signal to noise for probe substrates was calculated by dividing the uptake of the probe substrate in transporter-expressing cells by the uptake of probe substrate in control cells not expressing the transporter of interest.

Question: `CO[C@H]1/C=C/O[C@@]2(C)Oc3c(C)c(O)c4c(O)c(c(/C=N/N5CCN(C)CC5)c(O)c4c3C2=O)NC(=O)/C(C)=C\C=C\[C@H](C)[C@H](O)[C@@H](C)[C@@H](O)[C@@H](C)[C@H](OC(C)=O)[C@@H]1C` [rifampicin, reference compound] was tested. Which inhibition at 5 min, 100 μM (OATP1B1) did it give?
Answer: The inhibition at 5 min, 100 μM was 98.8 ± 1.09%.

Question: And the inhibition at 5 min, 100 μM (OATP1B3)?
Answer: The inhibition at 5 min, 100 μM was 99 ± 0.955%.

Question: Which results are given for `C=C[C@H]1C[N@@]2CC[C@H]1C[C@@H]2[C@@H](O)c1ccnc2ccc(OC)cc12` [quinidine]?
Answer: inhibition at 5 min, 1000 μM (OCT1): 91.2 ± 1.57%; inhibition at 5 min, 1000 μM (OCT2): 98.5 ± 1.34%

Question: Which results are given for `CCC1(c2ccccc2)C(=O)NC(=O)NC1=O` [phenobarbital, reference compound]?
Answer: fold induction at 72 h, 1000 μM (CYP2B6 mRNA): 9.83 ± 0.992; fold induction at 72 h, 1000 μM (CYP2B6): 5.03 ± 1.06

Question: Which IC50 (CYP2C8) does the source give for `Cc1ccc(C)c(OCCCC(C)(C)C(=O)O[C@@H]2O[C@H](C(=O)O)[C@@H](O)[C@H](O)[C@H]2O)c1` [gemfibrozil glucuronide, reference compound] here?
Answer: Its IC50 is 960 nM.

Question: How did the fold induction at 72 h, 50 μM (CYP1A2 mRNA) turn out when `COc1ccc2[nH]c([S+]([O-])Cc3ncc(C)c(OC)c3C)nc2c1` (centres unmarked) [omeprazole, reference compound] was run?
Answer: Its fold induction at 72 h, 50 μM is 45.7 ± 4.51.

Question: What about the fold induction at 72 h, 50 μM (CYP1A2) of the same compound?
Answer: The fold induction at 72 h, 50 μM was 50.6 ± 3.78.

Question: With `COc1ccc2c3c([nH]c2c1)[C@H](CC(C)C)N1C(=O)[C@H](CCC(=O)OC(C)(C)C)NC(=O)[C@@H]1C3` [Ko143] as the compound, how does the “% inhibition of BCRP-mediated transport of prazosin, reference inhibitor” value (BCRP) read?
Answer: The value was 90.4 ± 1.89%.

Question: How did the inhibition at 5 min, 100 μM (OAT3) turn out when `CCCN(CCC)S(=O)(=O)c1ccc(C(=O)O)cc1` [probenecid, reference compound] was run?
Answer: The inhibition at 5 min, 100 μM was at most 98.3%.
